Data taken from patent US20260262652A1, “INSECT DAMAGE INHIBITOR, METHOD FOR USING RESIN COMPOSITION, CULTIVATION METHOD, POTTING SOIL, AND METHOD FOR IMPROVING SOIL” (ARAKAWA CHEMICAL INDUSTRIES, LTD., priority 2023, published 2026).

Test system: two-spotted spider mites
Experiment: Test 2: spraying onto two-spotted spider mites on kidney bean seedlings, count of mites (pest reproduction inhibition effect)
Type: in vivo, Tetranychus urticae
Settings: ten female adults inoculated on kidney bean seedlings, (A1) as 1% solution, average of pots
Method: Ten female adult two-spotted spider mites were inoculated onto ‘Naga-uzura’ kidney bean seedlings (14 days after germination) grown in plastic pots, and an ethanol solution of the component (A1) was further diluted 10-fold with deionized water, and the resulting 1% solution was sprayed onto the spider mites. Two additional pots with similarly grown kidney bean seedlings were prepared. On the 2nd, 4th, 9th, 13th, and 17th days after spraying, the total number of two-spotted spider mites on the adaxial surface, abaxial surface, and true leaves of the kidney beans in each pot was counted, and the average value was calculated. The test was conducted in the same manner for the component (A3)′.

CCO [(A3)′, ethanol]
Number of two-spotted spider mites (Average) Day 2 (Day 2 after spraying): 9
Number of two-spotted spider mites (Average) Day 4 (Day 4 after spraying): 8
Number of two-spotted spider mites (Average) Day 9 (Day 9 after spraying): 287
Number of two-spotted spider mites (Average) Day 13 (Day 13 after spraying): 564
Number of two-spotted spider mites (Average) Day 17 (Day 17 after spraying): 924
